Source: patent US20150136167A1, “METHOD OF TREATING HAIR” (priority 2012, published 2015)

How the values were obtained:
[1] = Hair straightening on dry hair switches (volume of switch image), Experiments 1 and 4
Experimental: Dark brown European wavy#6 switches of length 25 cm and weight 2 gms, were dosed with 2 ml each of 5% citric acid solutions at various pH's. They were combed straight and left to dry for at least 20 minutes. They were subsequently rinsed for 30 seconds under the tap. They were then combed straight and left to dry overnight. When dry the switches were combed straight and pictures taken. […] (Here volume refers to the projection of the switch image on to the screen and is given in mm^2).

[2] = Hair straightening with application to wet hair, Experiment 3
[3] = Solubility of actives at the 5% level; type: physicochemical
[4] = 5% solution at pH 2, 2 ml dosed on dry switch, left at least 20 min, rinsed, combed, dried overnight
[5] = 5% solution at pH 2, dosed on dry switch
[6] = 5% solution at pH 3, dosed on dry switch
[7] = 5% solution at pH 4, dosed on dry switch
[8] = 5% solution at pH 5, dosed on dry switch
[9] = 5% solution at pH 6, dosed on dry switch

Structure (SMILES) | Volume in mm^2 [1, 4] | % benefit over water [1, 5] | % benefit over water [1, 6] | Volume in mm^2 [1, 6] | also measured
O=C(O)C(=O)O [Oxalic acid] | 13419 mm^2 | 6.0% | – | – | –
O=C(O)CC(=O)O [Malonic acid] | 11220 mm^2 | 21.4% | 16.3% | 11950 mm^2 | –
O=C(O)C(O)c1ccccc1 (stereo not drawn) [Mandelic acid, reference compound] | 13545 mm^2 | 5.1% | – | – | –
O=C(O)/C=C(\CC(=O)O)C(=O)O [trans Aconitic acid] | 8456 mm^2 | 40.8% | 17.3% | 11812 mm^2 | –
O=C(O)CC(O)(CC(=O)O)C(=O)O [citric acid] | 9481 mm^2 | 33.6% | 32.9% | 9574 mm^2 | % benefit over water [1, 7]: 17.9%; Volume in mm^2 [1, 7]: 11717 mm^2; % benefit over water [1, 8]: 23.9%; Volume in mm^2 [1, 8]: 10871 mm^2; % benefit over water [1, 9]: 15.0%; Volume in mm^2 [1, 9]: 12136 mm^2; straightening benefit compared with the results with dry hair ([2]; 5% solution at pH 2 applied to wet hair): significantly reduced; straightening benefit compared with the results with dry hair ([2]; 5% solution at pH 3 applied to wet hair): significantly reduced
O=C(O)CC(O)C(=O)O (stereo not drawn) [Malic acid] | 12426 mm^2 | 13.0% | – | – | –
O=C(O)/C=C/C(=O)O [Fumaric acid] | – | – | – | – | solubility at the 5% level [3]: not soluble at the 5% level
